Patent publication US20210024756A1, “STABILIZED COPPER GLASS” (CORNING INCORPORATED, priority 2018, published 2021)

System: E. coli
Assay: Minimum Inhibition Concentration, bacterial recovery grading
Assay type: cell-based
Design: key: −: No bacterial recovery.; +: Trace of contamination (<10colonies).; ++: Light contamination (>100 colonies).; +++: Heavy contamination (continuous smear of growth)
Details: E. coli OD 0.441, 2.68 × 10^8 cell/mL

Which “Bacterial growth (Minimum Inhibition Concentration)” value (0.0001 ppm (mg/L)) does the source give for thiourea [Thiourea Ctrl] here?
The value was “+++”.

And the “Bacterial growth (Minimum Inhibition Concentration)” value (0.001 ppm (mg/L))?
Its value is “+++”.

What about the “Bacterial growth (Minimum Inhibition Concentration)” value (0.01 ppm (mg/L)) of the same substance?
Its value is “+++”.

And the “Bacterial growth (Minimum Inhibition Concentration)” value (0.1 ppm (mg/L))?
Its value is “+++”.

What about the “Bacterial growth (Minimum Inhibition Concentration)” value (1 ppm (mg/L)) of the same substance?
The value was “+++”.

What about the “Bacterial growth (Minimum Inhibition Concentration)” value (10 ppm (mg/L)) of the same substance?
The value was “+++”.

What about the “Bacterial growth (Minimum Inhibition Concentration)” value (100 ppm (mg/L)) of the same substance?
Its value is “+++”.

And the “Bacterial growth (Minimum Inhibition Concentration)” value (1000 ppm (mg/L))?
Its value is “+++”.

And the “Bacterial growth (Minimum Inhibition Concentration)” value (10000 ppm (mg/L))?
The value was “+++”.

What about the “Bacterial growth (Minimum Inhibition Concentration)” value (100000 ppm (mg/L)) of the same substance?
Its value is “+++”.

And the “Bacterial growth (Minimum Inhibition Concentration)” value (1000000 ppm (mg/L))?
Its value is “−”.
